Results on 26 compounds are retold here after patent publication US11191762B2, “Alkyl substituted triazole compounds as agonists of the APJ Receptor” (priority 2016, dated 2021).

Chain of human APJ receptor (P35414 whole entry): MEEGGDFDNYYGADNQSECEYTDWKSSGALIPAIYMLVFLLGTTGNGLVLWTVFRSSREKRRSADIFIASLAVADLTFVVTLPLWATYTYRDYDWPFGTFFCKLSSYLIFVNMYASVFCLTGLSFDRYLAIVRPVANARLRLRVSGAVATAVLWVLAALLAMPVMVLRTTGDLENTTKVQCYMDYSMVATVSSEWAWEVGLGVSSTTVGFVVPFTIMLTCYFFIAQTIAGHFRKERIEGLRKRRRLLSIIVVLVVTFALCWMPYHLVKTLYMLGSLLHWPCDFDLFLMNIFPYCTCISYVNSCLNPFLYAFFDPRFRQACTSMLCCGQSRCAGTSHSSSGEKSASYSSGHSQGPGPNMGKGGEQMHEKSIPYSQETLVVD

One assay concerns the target human APJ receptor (Homo sapiens (Human), UniProt P35414). In words: biochemical. Type of assay: biochemical.
Conditions: not given
As to the method:
The human APJ receptor was cloned by polymerase chain reaction and the gene encoding the receptor was subcloned in pFLAG-CMV™-3 expression vector (Sigma, Saint Louis, Mo. USA) in-house at Amgen. A GTPγS binding assay was performed on membranes prepared from CHO cells stably expressing human APJ receptor. The optimum experimental conditions for the concentrations of GDP, MgCl2, and NaCl in the assay buffer were initially determined. The assay was performed in 9 μL assay buffer [20 mM HEPES, pH 7.5, 5 mM MgCl2, 100 mM NaCl and 0.1% (w/v) BSA], 1 μL of diluted test compound (starting with 0.75 mM, 2-fold serial dilution with DMSO, total 22 points), 10 μL of 18 µM GDP (final concentration of 3 μM GDP), 20 μL of […] membrane protein expressing human APJ receptor captured with WGA PS beads (final concentration of 5 μg per well), and 20 μL of 0.3 nM [^35S]GTPγS (final concentration is 0.1 nM [^35S]GTPγS)(Perkin Elmer Life and Analytical Sciences, Waltham USA).
In turn, `[2H]C([2H])([2H])OCc1nnc(NS(=O)(=O)[C@@H](C)[C@@H](OC(C)C)c2ncc(C)cn2)n1-c1c(OC)cccc1OC` [Example 152.0] yielded an EC50 of 6.1 nM.

Staying with this assay, now noted: [35S]GTPγS binding, membranes from CHO cells stably expressing human APJ receptor; read-out: Activity hAPJ SPA EC50 IP.
As for `COc1ccc(Cc2nnc(NS(=O)(=O)[C@@H](C)[C@H](OC)c3ncc(C)cn3)n2-c2c(OC)cccc2OC)cc1` [Example 49.0], the EC50 was 170 nM.

As for `COc1cccc(OC)c1-n1c(C[C@@H]2CCS(=O)(=O)C2)nnc1NS(=O)(=O)[C@@H](C)[C@H](C)c1ncc(Cl)cn1` (mixture of isomers) [Example 47.0, (2S,3R)-3-(5-chloro-2-pyrimidinyl)-N-(4-(2,6-dimethoxyphenyl)-5-(((3R)-1,1-dioxidotetrahydro-3-thiophenyl)methyl)-4H-1,2,4-triazol-3-yl)-2-butanesulfonamide and (2S,3R)-3-(5-chloro-2-pyrimidinyl)-N-(4-(2,6-dimethoxyphenyl)-5-(((3S)-1,1-dioxidotetrahydro-3-thiophenyl)methyl)-4H-1,2,4-triazol-3-yl)-2-butanesulfonamide], the EC50 is 70 nM. Same read-out and setting: as for `COc1cccc(OC)c1-n1c(Cc2ccccc2)nnc1NS(=O)(=O)[C@@H](C)[C@H](C)c1ncc(Cl)cn1` [Example 14.0, (2S,3R)-N-(5-benzyl-4-(2,6-dimethoxyphenyl)-4H-1,2,4-triazol-3-yl)-3-(5-chloro-2-pyrimidinyl)-2-butanesulfonamide], the figure is 4.6 nM; as for `COc1cccc(OC)c1-n1c(CCc2ccco2)nnc1NS(=O)(=O)[C@@H](C)[C@H](C)c1ncc(Cl)cn1` [Example 36.0, (2S,3R)-3-(5-chloro-2-pyrimidinyl)-N-(4-(2,6-dimethoxyphenyl)-5-(2-(2-furanyl)ethyl)-4H-1,2,4-triazol-3-yl)-2-butanesulfonamide], 2.9 nM; as for `COc1cccc(OC)c1-n1c(NS(=O)(=O)[C@@H](C)[C@H](C)c2ncc(C)cn2)nnc1-c1cccc2c1CC(=O)N2` [Example 17.0, (2S,3R)-N-(4-(2,6-dimethoxyphenyl)-5-(2-oxoindolin-4-yl)-4H-1,2,4-triazol-3-yl)-3-(5-methylpyrimidin-2-yl)butane-2-sulfonamide], 350 nM. Still for that read-out and setting: next, `COc1ncnc(OC)c1-n1c(Cc2ccccc2)nnc1NS(=O)(=O)[C@@H](C)[C@H](C)c1ncc(C)cn1` [Example 23.0, (2S,3R)-N-(5-benzyl-4-(4,6-dimethoxy-5-pyrimidinyl)-4H-1,2,4-triazol-3-yl)-3-(5-methyl-2-pyrimidinyl)-2-butanesulfonamide]: 400 nM; `COc1cccc(OC)c1-n1c(NS(=O)(=O)[C@@H](C)[C@H](C)c2ncc(C)cn2)nnc1[C@H](OC)c1ccccc1` [Example 18.0, (2S,3R)-N-(4-(2,6-dimethoxyphenyl)-5-((R)-methoxy(phenyl)methyl)-4H-1,2,4-triazol-3-yl)-3-(5-methyl-2-pyrimidinyl)-2-butanesulfonamide]: 240 nM. `COc1cccc(OC)c1-n1c(COc2ccccc2)nnc1NS(=O)(=O)[C@@H](C)[C@H](OC)c1ncc(C)cn1` [Example 48.0, (1R,2S)—N-(4-(2,6-Dimethoxyphenyl)-5-(phenoxymethyl)-4H-1,2,4-triazol-3-yl)-1-methoxy-1-(5-methyl-2-pyrimidinyl)-2-propanesulfonamide]: the EC50 was determined as 440 nM. The same measure, in the same setting: as for `COc1cccc(OC)c1-n1c(Cc2ccc(C)cn2)nnc1NS(=O)(=O)[C@@H](C)[C@H](C)c1ncc(C)cn1` [Example 20.0, (2S,3R)-N-(4-(2,6-dimethoxyphenyl)-5-((5-methyl-2-pyridinyl)methyl)-4H-1,2,4-triazol-3-yl)-3-(5-methyl-2-pyrimidinyl)-2-butanesulfonamide], the figure is above 4200 nM; as for `COCc1nnc(NS(=O)(=O)[C@@H](C)[C@H](OC)c2ncc(Cl)cn2)n1-c1ccccc1OC` [Example 132.0], 11 nM; as for `COc1cccc(OC)c1-n1c(NS(=O)(=O)[C@@H](C)[C@H](C)c2ncc(C)cn2)nnc1-c1cccc2c1CC(=O)N2` [Example 16.0, (2S,3R)-N-(4-(2,6-dimethoxyphenyl)-5-(2-oxoindolin-4-yl)-4H-1,2,4-triazol-3-yl)-3-(5-methylpyrimidin-2-yl)butane-2-sulfonamide], 120 nM. Same read-out and setting: as for `COCc1nnc(NS(=O)(=O)[C@@H](C)[C@H](C)c2cnc(C)cn2)n1-c1c(OC)cccc1OC` [Example 8.0, (2S,3R)-N-(4-(2,6-dimethoxyphenyl)-5-(methoxymethyl)-4H-1,2,4-triazol-3-yl)-3-(5-methyl-2-pyrazinyl)-2-butanesulfonamide], the figure is 260 nM. Consider `COc1cccc(OC)c1-n1c(Cc2cc[nH]n2)nnc1NS(=O)(=O)[C@@H](C)[C@H](C)c1ncc(Cl)cn1` [Example 39.0, (2S,3R)-3-(5-chloro-2-pyrimidinyl)-N-(4-(2,6-dimethoxyphenyl)-5-(1H-pyrazol-3-ylmethyl)-4H-1,2,4-triazol-3-yl)-2-butanesulfonamide], for which the EC50 was found to be 5.8 nM. Same read-out and setting: next, `COCc1nnc(NS(=O)(=O)[C@@H](C)[C@H](OC)c2ncc(Cl)cn2)n1-c1c(F)cccc1F` [Example 131.0]: 20 nM; “(1R,2S)-1-(5-chloropyrimidin-2-yl)-1-methoxy-N-(4-(1-methylaclopropyl)-5-(((R)-tetrahydrofurcan-2-yl)methyl)-4H-l,2,4-triazol-3-yl)propane-2-sulfonainide or (1R,2S)-1-(5-chloroprimidin-2-yl)-1-methoxy-N-(4-(1-methylcyclopropyl)-5-(((S)-tetrahydrofuran-2-yl)methyl)-4H-l,2.4-triazol-3-yl)propane-2-sulfonamide [Example 56.0]”: 420 nM; `CCCCc1nnc(NS(=O)(=O)[C@@H](C)[C@H](C)c2ncc(Cl)cn2)n1-c1c(OC)cccc1OC` [Example 164.0]: 0.84 nM. On the same count and under the same terms, as for `COc1ncnc(OC)c1-n1c(CC2CCCC2)nnc1NS(=O)(=O)[C@@H](C)[C@H](OC)c1ncc(Cl)cn1` [Example 28.0, (1R,2S)-1-(5-chloro-2-pyrimidinyl)-N-(5-(cyclopentylmethyl)-4-(4,6-dimethoxy-5-pyrimidinyl)-4H-1,2,4-triazol-3-yl)-1-methoxy-2-propanesulfonamide], the figure is 4.5 nM; as for `COCc1nnc(NS(=O)(=O)[C@@H](C)[C@H](OC)c2ncc(Cl)cn2)n1C1(COC)CC1` [Example 145.0], 240 nM; as for `COCc1nnc(NS(=O)(=O)[C@@H](C)[C@H](C)c2cnc(OC)cn2)n1-c1c(OC)cccc1OC` [Example 74.0, (2S,3R)-N-(4-(2,6-dimethoxyphenyl)-5-(methoxymethyl)-4H-l,2,4-triazol-3-yl)-3-(5-methoxypyrazin-2-yl)butane-2-sulfonamide], 16 nM. On the same count and under the same terms, as for `COc1cccc(OC)c1-n1c(Cc2cccs2)nnc1NS(=O)(=O)[C@@H](C)[C@H](C)c1ncc(Cl)cn1` [Example 43.0, (2S,3R)-3-(5-chloro-2-pyrimidinyl)-N-(4-(2,6-dimethoxyphenyl)-5-(2-thiophenylmethyl)-4H-1,2,4-triazol-3-yl)-2-butanesulfonamide], the figure is 2.7 nM; as for `CC[C@@H](OC)c1nnc(NS(=O)(=O)[C@@H](C)[C@H](C)c2ncc(Cl)cn2)n1-c1c(OC)ncnc1OC` (single isomer, unassigned) [Example 7.0, (2S,3R)-3-(5-chloro-2-pyrimidinyl)-N-(4-(4,6-dimethoxy-5-pyrimidinyl)-5-((1R)-1-methoxypropyl)-4H-1,2,4-triazol-3-yl)-2-butanesulfonamide or (2S,3R)-3-(5-chloro-2-pyrimidinyl)-N-(4-(4,6-dimethoxy-5-pyrimidinyl)-5-((1S)-1-methoxypropyl)-4H-1,2,4-triazol-3-yl)-2-butanesulfonamide], 360 nM. As for `COc1cccc(OC)c1-n1c(CN2CCCC2=O)nnc1NS(=O)(=O)[C@@H](C)[C@H](C)c1ncc(Cl)cn1` [Example 41.0, (2S,3R)-3-(5-chloro-2-pyrimidinyl)-N-(4-(2,6-dimethoxyphenyl)-5-((2-oxo-1-pyrrolidinyl)methyl)-4H-1,2,4-triazol-3-yl)-2-butanesulfonamide], the EC50 is 320 nM.

As to “(S)-N-(4-(2,6-dimethoxyphenyl)-5-(methoxymethyl)-4H-1,2,4-triazol-3-yl)-l-(5-fluoropyrimidin-2-yl)piperidine-3-sulfonamide or (R)-N-(4-(2,6-dimethoxyphenyl)-5-(methoxymethyl)-4H-1,2,4-triazol-3-yl)-l-(5-fluoropyrimidin-2-yl)piperidine-3-sulfonamide [Example 78.0]”, the EC50 was determined as 615 nM. Still for that read-out and setting: next, “(1R,2S)-1-(5-chloro-2-pyrimidinyl)-N-(5-((1R)-1-cyclopropylethyl)-4-(4,6-dimethoxy-5-pyrimidinyl)-4H-1,2,4-triazol-3-yl)-1-methoxy-2-propanesulfonamide and (1R,2S)-1-(5-chloro-2-pyrimidinyl)-N-(5-((1S)-1-cyclopropylethyl)-4-(4,6-dimethoxy-5-pyrimidinyl)-4H-1,2,4-triazol-3-yl)-1-methoxy-2-propanesulfonamide [Example 167.0]”: 110 nM.

Still in this assay, the particulars now being: read-out: Activity hAPJ SPA EC50 IP.
In the case of `COCc1nnc(NS(=O)(=O)[C@@H](C)[C@H](OC)c2ncc(Cl)cn2)n1-c1c(OC)ncnc1OC` [Example 58.0, (1R,2S)-1-(5-chloropyrimidin-2yl)-N-(4-(4.6-dimethoxypyrimidin-5-yl)-5-(methoxymethyl)-4H-l,2,4-triazol-3-yl)-1-methoxypropane-2-sulfonamide], the EC50 is 330 nM.

As usually defined, the EC50 is the concentration at which the effect is half-maximal.
